Reference: patent US20100061982A1, “3-SUBSTITUTED-1H-INDOLE, 3-SUBSTITUTED-1H-PYRROLO[2,3-B]PYRIDINE AND 3-SUBSTITUTED-1H-PYRROLO[3,2-B]PYRIDINE COMPOUNDS, THEIR USE AS MTOR KINASE AND PI3 KINASE INHIBITORS, AND THEIR SYNTHESES” (priority 2008, published 2010)
In brackets after ≈: the same amount, converted by molar mass. Like-named read-outs stand apart in the source and are kept apart here.

Assays:
[1] = Solubility pH 7.4; conditions: pH 7.4, aqueous buffer
[2] = Microsome Stability (15 min), rat; format: in vitro ADME; conditions: microsomes, Phase I (NADPH), read-out: Microsome Stability (15 min) T ½ Phase I rat
[3] = PAMPA permeability pH 7.4
[4] = CACO2 permeability a-b/b-a; format: in vitro ADME; conditions: human, Caco-2; for Papp A→B: a − b (first value of cell), read-out: CACO2 Pe a − b; for Papp B→A: b − a (second value of cell), read-out: CACO2 Pe b − a
[5] = Microsome Stability (15 min), nude mouse; format: in vitro ADME; conditions: microsomes
[6] = target: PI3K alpha (Homo sapiens, UniProt P42336); test: PI3K-alpha Fluorescence Polarization Assay; format: biochemical
[7] = Microsome Stability (15 min), human; format: in vitro ADME; conditions: microsomes
[8] = target: mTOR (Homo sapiens, UniProt P42345); test: mTOR Enzyme Assay (DELFIA, purified enzyme); format: biochemical; set-up: FLAG
[9] = Buffer Stability (37° C.)
[10] = Plasma Stability (37° C.), rat
[11] = In vivo blood/plasma and tumor levels of prodrug and metabolites after 50 mg, kg po; conditions: 50 mg
[12] = nude, mouse, Phase I (NADPH), read-out: Microsome Stability (15 min) T ½ Phase I nude mouse
[13] = Phase I (NADPH), read-out: Microsome Stability (15 min) T ½ Phase I human
[14] = value after the slash in Table VIc, read-out: Microsome Stability (15 min) T ½ human, second value of cell
[15] = Phase I (NADPH), read-out: Microsome Stability (15 min) T ½ Phase I nude mouse

PI3K alpha, sequence (P42336 whole entry, species assumed): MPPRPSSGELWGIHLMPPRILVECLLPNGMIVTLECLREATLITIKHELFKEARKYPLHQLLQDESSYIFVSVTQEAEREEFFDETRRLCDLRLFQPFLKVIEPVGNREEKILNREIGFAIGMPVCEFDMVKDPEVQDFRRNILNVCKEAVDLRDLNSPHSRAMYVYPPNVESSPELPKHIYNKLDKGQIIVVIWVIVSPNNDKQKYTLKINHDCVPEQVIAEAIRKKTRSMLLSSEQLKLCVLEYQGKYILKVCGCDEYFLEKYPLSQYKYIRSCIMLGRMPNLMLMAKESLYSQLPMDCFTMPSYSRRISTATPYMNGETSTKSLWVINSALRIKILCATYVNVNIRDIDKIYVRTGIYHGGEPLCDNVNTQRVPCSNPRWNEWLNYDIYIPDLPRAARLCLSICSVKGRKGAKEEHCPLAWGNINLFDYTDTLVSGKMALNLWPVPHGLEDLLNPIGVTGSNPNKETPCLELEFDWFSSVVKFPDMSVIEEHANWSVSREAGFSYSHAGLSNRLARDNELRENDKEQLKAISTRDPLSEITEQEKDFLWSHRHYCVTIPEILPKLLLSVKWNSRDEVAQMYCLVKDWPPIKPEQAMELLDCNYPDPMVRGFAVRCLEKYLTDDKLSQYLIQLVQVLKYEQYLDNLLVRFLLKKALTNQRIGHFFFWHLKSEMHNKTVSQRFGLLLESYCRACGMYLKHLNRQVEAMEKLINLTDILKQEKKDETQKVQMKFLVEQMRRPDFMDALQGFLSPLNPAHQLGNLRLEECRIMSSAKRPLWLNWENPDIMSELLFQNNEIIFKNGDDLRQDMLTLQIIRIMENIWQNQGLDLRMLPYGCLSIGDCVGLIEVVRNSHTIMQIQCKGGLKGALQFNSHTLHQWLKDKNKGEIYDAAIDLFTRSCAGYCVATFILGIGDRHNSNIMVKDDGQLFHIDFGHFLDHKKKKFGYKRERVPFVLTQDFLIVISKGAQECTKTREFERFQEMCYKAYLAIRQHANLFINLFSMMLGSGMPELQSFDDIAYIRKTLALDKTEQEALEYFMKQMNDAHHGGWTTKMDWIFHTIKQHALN
PI3K alpha, sequence (P27986 whole entry partner, species assumed): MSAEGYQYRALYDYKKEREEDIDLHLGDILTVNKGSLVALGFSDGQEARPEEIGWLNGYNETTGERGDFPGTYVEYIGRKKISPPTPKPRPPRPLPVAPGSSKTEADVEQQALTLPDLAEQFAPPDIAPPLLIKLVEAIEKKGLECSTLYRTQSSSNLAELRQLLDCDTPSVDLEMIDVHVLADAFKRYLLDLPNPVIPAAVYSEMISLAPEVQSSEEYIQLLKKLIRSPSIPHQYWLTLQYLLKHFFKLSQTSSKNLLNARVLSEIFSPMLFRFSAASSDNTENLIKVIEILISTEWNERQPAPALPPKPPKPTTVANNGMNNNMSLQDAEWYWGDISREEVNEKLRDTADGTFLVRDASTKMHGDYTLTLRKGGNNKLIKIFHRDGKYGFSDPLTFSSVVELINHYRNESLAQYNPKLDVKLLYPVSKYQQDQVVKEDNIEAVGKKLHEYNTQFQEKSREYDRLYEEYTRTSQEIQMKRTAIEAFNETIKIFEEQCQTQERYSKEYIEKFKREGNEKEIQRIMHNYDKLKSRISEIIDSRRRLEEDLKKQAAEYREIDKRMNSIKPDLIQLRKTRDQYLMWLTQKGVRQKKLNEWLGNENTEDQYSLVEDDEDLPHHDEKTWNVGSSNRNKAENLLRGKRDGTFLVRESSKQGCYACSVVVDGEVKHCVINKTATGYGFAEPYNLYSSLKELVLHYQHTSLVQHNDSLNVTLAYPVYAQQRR

Compound | solubility [1] | half-life [2] | PAMPA Pe [3] | half-life [7, 13] | IC50 ([8]; read-out: mTOR Mean IC50) | IC50 [6] | also measured
COc1ccc2c(c1)c(/C=C1\Oc3cc(O)ccc3C1=O)cn2CCCN(C)C [(2Z)-2-({1-[3-(dimethylamino)propyl]-5-methoxy-1H-indol-3-yl}methylene)-6-hydroxy-1-benzofuran-3(2H)-one] | 53 µg/mL (≈ 135 µM) | 12 min | 0 10e−6 cm/s |  |  |  | 
Cn1cc(/C=C2\Oc3cc(O)cc(O)c3C2=O)c2c(-c3ccccc3)ccnc21 [(2Z)-4,6-dihydroxy-2-[(1-methyl-4-phenyl-1H-pyrrolo[2,3-b]pyridin-3-yl)methylene]-1-benzofuran-3(2H)-one] | 1 µg/mL (≈ 2.6 µM) | > 30 min | 0.09 10e−6 cm/s | > 30 min |  |  | Papp A→B [4]: 66.3 ×10⁻⁶ cm/s; Papp B→A [4]: 58.1 ×10⁻⁶ cm/s; half-life [5, 12]: 30 min; half-life ([5]; nude, mouse, value after the slash in Table VIc, read-out: Microsome Stability (15 min) T ½ nude mouse, second value of cell): 2 min; IC50 ([6]; read-out: PI3K alpha Mean IC50): 62.8 nM; half-life [7, 14]: 6 min
Cn1cc(/C=C2\Oc3cccc(O)c3C2=O)c2c(N3CC4CCC(C3)O4)ccnc21 [(2Z)-4-hydroxy-2-{[1-methyl-4-(8-oxa-3-azabicyclo[3.2.1]oct-3-yl)-1H-pyrrolo[2,3-b]pyridin-3-yl]methylene}-1-benzofuran-3(2H)-one] |  | 2 min | 0.79 10e−6 cm/s | 28 min |  |  | Papp A→B [4]: 5.5 ×10⁻⁶ cm/s; Papp B→A [4]: 8.1 ×10⁻⁶ cm/s; half-life [5, 12]: 13 min; half-life [7, 14]: 3 min
COc1ccc2c(c1)c(/C=C1\Oc3ccc(O)cc3C1=O)c(C)n2CCN1CCN(C)CC1 [(2Z)-5-hydroxy-2-({5-methoxy-2-methyl-1-[2-(4-methylpiperazin-1-yl)ethyl]-1H-indol-3-yl}methylene)-1-benzofuran-3(2H)-one] |  |  |  |  | 1050 nM |  | 
COc1ccc2c(c1)c(/C=C1\Oc3cc(OC(=O)C(C)(C)C)cc(OC(=O)C(C)(C)C)c3C1=O)cn2CCCN(C)C [Example 14, (2Z)-2-({1-[3-(dimethylamino)propyl]-5-methoxy-1H-indol-3-yl}methylene)-3-oxo-2,3-dihydro-1-benzofuran-4,6-diyl bis(2,2-dimethylpropanoate)] | 1 µg/mL (≈ 1.73 µM) | 3 min | 0 10e−6 cm/s | 21 min |  |  | half-life [5, 12]: 2 min; Buffer Stability (37° C.) % Remaining (at 16-23 hours) SGF [9]: 94%; Buffer Stability (37° C.) % Remaining (at 16-23 hours) SIF [9]: 0%; Buffer Stability (37° C.) % Remaining (at 16-23 hours) pH 1 [9]: 89%; Buffer Stability (37° C.) % Remaining (at 16-23 hours) pH 4.5 [9]: 98%; Buffer Stability (37° C.) % Remaining (at 16-23 hours) pH 6.6 [9]: 79%; Buffer Stability (37° C.) % Remaining (at 16-23 hours) pH 7.4 [9]: 20%; Buffer Stability (37° C.) % Remaining (at 16-23 hours) pH 9 [9]: 0%
COc1ccc2[nH]c(-c3ccccc3)c(/C=C3\Oc4cc(OC(=O)c5ccccc5)ccc4C3=O)c2c1 [Example 17, (2Z)-2-[(5-methoxy-2-phenyl-1H-indol-3-yl)methylene]-3-oxo-2,3-dihydro-1-benzofuran-6-yl benzoate] | 4 µg/mL (≈ 8.2 µM) | 5 min | 0 10e−6 cm/s | 4 min |  |  | half-life [5, 12]: > 30 min; Plasma Stability (37° C.) % Remaining (3-3.5 hours) rat [10]: 2%; Buffer Stability (37° C.) % Remaining (at 16-23 hours) SGF [9]: 96%; Buffer Stability (37° C.) % Remaining (at 16-23 hours) SIF [9]: 0%; Buffer Stability (37° C.) % Remaining (at 16-23 hours) pH 1 [9]: 95%; Buffer Stability (37° C.) % Remaining (at 16-23 hours) pH 4.5 [9]: 93%; Buffer Stability (37° C.) % Remaining (at 16-23 hours) pH 6.6 [9]: 95%; Buffer Stability (37° C.) % Remaining (at 16-23 hours) pH 7.4 [9]: 32%; Buffer Stability (37° C.) % Remaining (at 16-23 hours) pH 9 [9]: 0%; IC50 ([6]; read-out: PI3K alpha Mean IC50): 157 nM
COc1ccc2[nH]c(-c3ccccc3)c(/C=C3\Oc4cc(OC(=O)Oc5ccccc5)cc(OC(=O)Oc5ccccc5)c4C3=O)c2c1 [Example 23, (2Z)-2-[(5-methoxy-2-phenyl-1H-indol-3-yl)methylene]-3-oxo-2,3-dihydro-1-benzofuran-4,6-diyl diphenyl biscarbonate] | 1 µg/mL (≈ 1.56 µM) | 8 min | 0 10e−6 cm/s | 6 min |  |  | Plasma Stability (37° C.) % Remaining (3-3.5 hours) rat [10]: 0%; Buffer Stability (37° C.) % Remaining (at 16-23 hours) SGF [9]: 0%; Buffer Stability (37° C.) % Remaining (at 16-23 hours) SIF [9]: 0%; Buffer Stability (37° C.) % Remaining (at 16-23 hours) pH 1 [9]: 0%; Buffer Stability (37° C.) % Remaining (at 16-23 hours) pH 4.5 [9]: 0%; Buffer Stability (37° C.) % Remaining (at 16-23 hours) pH 6.6 [9]: 0%; Buffer Stability (37° C.) % Remaining (at 16-23 hours) pH 7.4 [9]: 0%; Buffer Stability (37° C.) % Remaining (at 16-23 hours) pH 9 [9]: 0%; IC50 ([6]; read-out: PI3K alpha Mean IC50): 10 nM
COc1ccc2c(c1)c(/C=C1\Oc3cc(OC(=O)N(c4ccccc4)c4ccccc4)cc(OC(=O)N(c4ccccc4)c4ccccc4)c3C1=O)c(C)n2CCN1CCN(C)CC1 [Example 29, (2Z)-2-({5-methoxy-2-methyl-1-[2-(4-methylpiperazin-1-yl)ethyl]-1H-indol-3-yl}methylene)-3-oxo-2,3-dihydro-1-benzofuran-4,6-diyl bis(diphenylcarbamate)] | 5 µg/mL (≈ 5.85 µM) |  | 0 10e−6 cm/s |  |  | 1000 nM | 
COc1ccc2[nH]c(-c3ccccc3)c(/C=C3\Oc4cc(OC(=O)N(C)C)cc(OC(=O)N(C)C)c4C3=O)c2c1 [Example 30, (2Z)-2-[(5-methoxy-2-phenyl-1H-indol-3-yl)methylene]-3-oxo-2,3-dihydro-1-benzofuran-4,6-diyl bis(dimethylcarbamate)] |  | 19 min | 0 10e−6 cm/s | < 1 min |  | 2220 nM | Papp A→B [4]: 0.19 ×10⁻⁶ cm/s; Papp B→A [4]: 0.04 ×10⁻⁶ cm/s; half-life [5, 15]: > 30 min; plasma prodrug concentration ([11]; 0.5 h): 29 ng, ml; plasma prodrug concentration ([11]; 2 h): 65 ng, ml; plasma prodrug concentration ([11]; 6 h (third value)): 20 ng, ml
COc1ccc2[nH]c(-c3ccccc3)c(/C=C3\Oc4cc(OC(=O)N(C(C)C)C(C)C)cc(OC(=O)N(C(C)C)C(C)C)c4C3=O)c2c1 [Example 31, (2Z)-2-[(5-methoxy-2-phenyl-1H-indol-3-yl)methylene]-3-oxo-2,3-dihydro-1-benzofuran-4,6-diyl bis(diisopropylcarbamate)] |  | 9 min | 0 10e−6 cm/s | 7 min | 510 nM |  | half-life [5, 15]: > 30 min; IC50 ([6]; read-out: PI3K alpha Mean IC50): 270 nM
CCOP(=O)(OCC)Oc1cc2c(c(OP(=O)(OCC)OCC)c1)C(=O)/C(=C/c1cn(CCCN(C)C)c3ccc(OC)cc13)O2 [Example 33, (2Z)-2-({1-[3-(dimethylamino)propyl]-5-methoxy-1H-indol-3-yl}methylene)-3-oxo-2,3-dihydro-1-benzofuran-4,6-diyl tetraethyl bis(phosphate)] | 59 µg/mL | 12 min | 0.25 10e−6 cm/s | 4 min |  | > 10000 nM | half-life [5, 15]: 15 min
CCOC(=O)CNC(=O)Oc1cc(OC(=O)NCC(=O)OCC)c2c(c1)O/C(=C\c1cn(CCCN(C)C)c3ccc(OC)cc13)C2=O [Example 35, diethyl 2,2′-[[(2Z)-2-({1-[3-(dimethylamino)propyl]-5-methoxy-1H-indol-3-yl}methylene)-3-oxo-2,3-dihydro-1-benzofuran-4,6-diyl]bis(oxycarbonylimino)]diacetate] | 51 µg/mL (≈ 76.5 µM) |  | 0 10e−6 cm/s |  |  | 28 nM | 
COc1ccc2c(c1)c(/C=C1\Oc3cc(OC(=O)N4CCN(Cc5ccccc5)CC4)cc(OC(=O)N4CCN(Cc5ccccc5)CC4)c3C1=O)cn2CCCN(C)C [Example 37, (2Z)-2-({1-[3-(dimethylamino)propyl]-5-methoxy-1H-indol-3-yl}methylene)-3-oxo-2,3-dihydro-1-benzofuran-4,6-diyl bis(4-benzylpiperazine-1-carboxylate)] |  |  | 0 10e−6 cm/s |  | 1650 nM | > 10000 nM | 
COc1ccc2c(c1)c(/C=C1\Oc3cc(O)cc(OC(=O)N(C)C)c3C1=O)cn2CCCN(C)C [Example 40, (2Z)-2-({1-[3-(dimethylamino)propyl]-5-methoxy-1H-indol-3-yl}methylene)-6-hydroxy-3-oxo-2,3-dihydro-1-benzofuran-4-yl dimethylcarbamate] |  |  |  |  | > 20000 nM | 5880 nM | 
COc1ccc2c(c1)c(/C=C1\Oc3cc(OC(=O)N(C)C)cc(O)c3C1=O)c(C)n2CCN1CCN(C)CC1 [Example 41, (2Z)-4-hydroxy-2-({5-methoxy-2-methyl-1-[2-(4-methylpiperazin-1-yl)ethyl]-1H-indol-3-yl}methylene)-3-oxo-2,3-dihydro-1-benzofuran-6-yldimethylcarbamate] |  |  |  |  |  | 1130 nM | IC50 [8]: 13000 nM
COc1ccc2c(c1)c(/C=C1\Oc3cc(OC(=O)N(C)C)cc(O)c3C1=O)cn2CCCN(C)C [Example 42, (2Z)-2-({1-[3-(dimethylamino)propyl]-5-methoxy-1H-indol-3-yl}methylene)-4-hydroxy-3-oxo-2,3-dihydro-1-benzofuran-6-yl dimethylcarbamate] |  |  |  |  | > 20000 nM | 2800 nM | 
